In US20250042857A1, “SOS1 Inhibitor With Pyrido-Fused Six-Membered Ring Structure” (HAIHE BIOPHARMA CO., LTD., priority 2021, published 2025):
pIC50: −log10 of the molar value.

tested on: p-ERK of PC-9 cells; assay: p-ERK HTRF assay in PC-9 cells; format: cell-based; settings: Homo sapiens, PC-9, 1 h, PC-9 lung cancer cells, 1 hour treatment, read-out: IC50, inhibitory activity on p-ERK of PC-9 cells
Method: IC50 Values of Compounds Determined by p-ERK HTRF Assay in PC-9 Cells
Experimental objective: an inhibitory effect of the test compounds on the phosphorylation of PC-9ERK of lung cancer cells at a cellular level was evaluated by detecting the phosphorylation of ERK.
• PRMI 1640 medium (Invitrogen-11875093) • 0.25% pancreatin (Invitrogen-25200056) • Phosphoric acid buffer salt solution (PBS, pH 7.4) (Invitrogen-10010023) • Double-antibody (PS) (Invitrogen-15140122) • Fetal bovine serum (FBS) (Gibco-10091148) • Trypan blue (Gibco-15250061) • 10-cm culture dish (Corning-430167) • 10-mL pipette (Costar-4488) • Pipettor (Sartorius-17009031) • 15-mL centrifuge tube (Corning-430052) • 50-mL centrifuge tube (Corning-430829) • Cryotube (Thermo-377267) • 1.5-mL EP tube (Axygen-MCT-150-C-S) • Cell incubator (Thermo-371) • Microscope (Olympus-CKX41) • Centrifuge (Flying Pigeon-TDL-80-2B) • Cell counter (Countstar-IC-1000) • Envision (Perkin Elmer) • Spark 10M (TECAN) • Phospho-ERK1/2 (Thr202/Tyr204) Experimental kit (Cisbio, Cat. No. 64AERPEG) • PC-9 cells: RPMI1640+10% FBS+1% PS
• 1) PBS, 0.25% pancreatin, and a cell culture medium were placed in a water-bath kettle at 37° C. for preheating; • 2) cells were observed under a microscope, a fusion degree was evaluated, and no bacterial and fungi pollution was confirmed; • 3) a culture solution was removed, the cells were washed with 5 mL of PBS and digested with 2 mL of the 0.25% trypsin, the digestion was terminated with 10 mL of the fresh cell culture medium, a culture dish was rinsed, and the cells were transferred to a 15-mL centrifuge tube; • 4) the collected cells were centrifuged at 1,000 rpm for 5 minutes; • 5) after the centrifugation, the supernatant was discarded, the cells were resuspended in 5 mL of the cell culture medium, 20 μL of the resuspended cells were aspirated, and the number and viability of viable cells were recorded; • 6) the cell culture medium was used and the cell density was adjusted (PC-9:10,000 cells/well, and 45 μL per well); • 7) in a 384-well plate, 45 μL of a cell suspension per well was transferred according to an experimental design figure; and • 8) the cells were incubated overnight at 37° C. and 5% CO2.
• 1) The compounds were diluted from the stock concentration to 10 mM with 100% DMSO (Trametinib was diluted to 1 mM), then 3-fold diluted into 10 points (5 μL of the diluted compounds with the concentration of 10 mM were transferred to 10 μL of the DMSO in an LDV plate), and centrifuged at 1,000 rpm/min for 1 minute; • 2) 5 μL of the diluted compounds of step 1) were transferred to an inter plate 1 containing 45 μL of the cell culture medium (the compounds were diluted from 1,000× to 100×); • 3) 5 μL of the diluted compounds of step 2) were transferred to an inter plate 2 containing 45 μL of the cell culture medium (the compounds were diluted from 100× to 10×); • 4) 5 μL of the compounds were pipetted from the inter plate 2 into a cell culture plate (the compounds were diluted from 10 folds to 1 fold), the final concentrations of the test compounds were 10,000 nM, 3333.33 nM, 1111.11 nM, 370.37 nM, 123.46 nM, 41.15 nM, 13.72 nM, 4.57 nM, 1.52 nM, and […], the solution was centrifuged at 1,000 rpm/min for 1 minute, and the final content of the DMSO was 0.1%; and • 5) the cells were treated in an incubator at 37° C. for 1 hour. […]

pIC50 | Compound
≥ 6.52 | C[C@@H](Nc1ccnc2cnc(N3CCCS3(=O)=O)cc12)c1cccc(C#N)c1F [Compound B-166]
≥ 6.52 | C[C@@H](Nc1ccnc2cnc(N3CCn4cncc4C3)cc12)c1cccc(C(F)F)c1F [Compound B-30]
< 6.00 | C[C@@H](Nc1ccnc2cnc(C3(O)CCN(C(=O)C[C@H]4CNCCO4)CC3)cc12)c1cccc(C(F)F)c1F [Compound B-143]
6.00 to 6.52 | C[C@@H](Nc1ccnc2cnc(N3CCn4ccnc4C3)cc12)c1cccc(C(F)F)c1F [Compound B-29]

molecular target: KRAS-G12C/SOS1 (Homo sapiens (Human), UniProt Q07889); assay: Detection of inhibitory effects of compounds on KRAS-G12C/SOS1 (KRASG12C/SOS binding kit, HTRF); settings: Em665/620, read-out: IC50, inhibitory activity on interaction of KRAS-G12C/SOS1
Sequence (Q07889 whole entry, stated change not applied): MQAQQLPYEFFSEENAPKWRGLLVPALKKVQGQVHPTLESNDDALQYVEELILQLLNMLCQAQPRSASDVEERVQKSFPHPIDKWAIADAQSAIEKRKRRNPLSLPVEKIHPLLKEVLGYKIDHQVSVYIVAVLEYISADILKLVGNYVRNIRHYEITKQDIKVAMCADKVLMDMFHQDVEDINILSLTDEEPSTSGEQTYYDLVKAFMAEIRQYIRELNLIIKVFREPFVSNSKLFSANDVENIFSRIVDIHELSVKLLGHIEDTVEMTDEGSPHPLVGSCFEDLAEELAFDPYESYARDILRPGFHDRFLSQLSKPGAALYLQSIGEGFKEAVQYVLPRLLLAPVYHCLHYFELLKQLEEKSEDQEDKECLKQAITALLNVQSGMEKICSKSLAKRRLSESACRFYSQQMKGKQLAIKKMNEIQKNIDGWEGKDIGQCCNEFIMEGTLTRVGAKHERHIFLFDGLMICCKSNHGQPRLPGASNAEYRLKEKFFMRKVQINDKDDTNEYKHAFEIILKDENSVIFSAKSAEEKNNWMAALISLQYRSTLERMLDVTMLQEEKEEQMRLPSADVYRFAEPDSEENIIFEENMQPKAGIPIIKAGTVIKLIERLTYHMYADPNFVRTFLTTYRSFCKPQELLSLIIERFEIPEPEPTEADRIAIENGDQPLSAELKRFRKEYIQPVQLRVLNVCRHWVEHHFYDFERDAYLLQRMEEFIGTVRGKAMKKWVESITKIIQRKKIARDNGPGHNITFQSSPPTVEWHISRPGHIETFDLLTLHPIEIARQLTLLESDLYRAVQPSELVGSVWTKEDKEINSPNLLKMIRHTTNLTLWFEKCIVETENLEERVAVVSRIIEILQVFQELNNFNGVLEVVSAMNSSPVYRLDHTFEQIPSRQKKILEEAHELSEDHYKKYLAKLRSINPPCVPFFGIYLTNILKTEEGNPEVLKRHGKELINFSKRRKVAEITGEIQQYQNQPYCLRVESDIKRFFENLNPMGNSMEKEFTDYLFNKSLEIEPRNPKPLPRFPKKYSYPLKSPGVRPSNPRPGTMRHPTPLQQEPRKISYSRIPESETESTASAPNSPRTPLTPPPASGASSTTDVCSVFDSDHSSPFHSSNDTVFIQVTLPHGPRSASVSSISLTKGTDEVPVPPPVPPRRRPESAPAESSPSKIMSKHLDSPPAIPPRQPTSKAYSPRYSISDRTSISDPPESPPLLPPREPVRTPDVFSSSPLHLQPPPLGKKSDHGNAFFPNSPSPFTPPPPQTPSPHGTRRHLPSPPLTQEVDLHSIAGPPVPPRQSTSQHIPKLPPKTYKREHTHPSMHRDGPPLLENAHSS
Description: Experimental objective: The inhibitory effects of the tested compounds on KRAS-G12C/SOS1 were detected. IC50 was used to characterize the inhibitory ability of the compounds on the KRAS-G12C/SOS1. The lower IC50 value indicated the stronger inhibitory ability. BI-3406 was used as a positive control compound.
Experimental reagents: KRASG12C/SOS binding kit (Cisbio, cat. 63ADK000CB16PEG); DMSO (Sigma, cat. D8418-1L); and 384-well white plate (PerkinElmer, cat. 6007290)
• 1. Preparation of compounds: the test compounds were dissolved in 100% DMSO to obtain 10 mM stock solutions and the stock solutions were stored in a refrigerator in the dark. • 2. Kinase reaction process:
Preparation of compounds: the test compounds had the concentration of 5,000 nM and diluted in a 384-well plate into a 100% DMSO solution at the 200-fold final concentration, and the compounds were diluted 3-fold with 10 concentrations. 50 nL of the compounds at the 200-fold final concentration were transferred to the plate of interest, the 384-well plate, using a dispenser Echo 550. 50 nL of 100% DMSO was added to each negative control well and positive control well.
A Tag1-SOS1 solution at the 4-fold final concentration was prepared using a diluent buffer.
2.5 μL of the Tag1-SOS1 solution at the 4-fold final concentration was added to the 384-well plate.
A Tag2-KRAS-G12C solution at the 4-fold final concentration was prepared using the diluent buffer.
2.5 μL of the Tag2-KRAS-G12C solution at the 4-fold final concentration was respectively added into compound wells and the positive control wells; and 2.5 μL of the diluent buffer was added to the negative control wells.
The 384-well plate was centrifuged at 1,000 rpm for 30 seconds, shaken and mixed uniformly, and incubated at room temperature for 15 minutes.
An Anti-Tag1-TB3+ solution at the 1-fold final concentration and an Anti-Tag2-XL665 solution at the 1-fold final concentration were prepared using a detection buffer, the two solutions were mixed uniformly to obtain a Mix solution, and 5 μL of the Mix solution was added into each well.
The 384-well plate was centrifuged at 1,000 rpm for 30 seconds, shaken and mixed uniformly, and incubated at 4° C. for 120 minutes.
Em665/620 was read using an Envision microplate reader.
Inhibition %=(Max signal−Compound signal)/(Max signal−Min signal)×100 Calculation formula • wherein the Min signal was the mean value of the negative control wells, and the Max signal was the mean value of the positive control wells.
A dose-response curve was fitted using the log value of the concentration as an X axis and the percentage of the inhibitory rate as a Y axis by using the log(inhibitor) vs. response-variable slope of an analytical software GraphPadPrism5, thereby obtaining the IC50 value of each compound on an enzyme activity.

Compound | pIC50
COc1cc2nccc(N[C@H](C)c3cccc(C(F)F)c3F)c2cc1O[C@@H]1CCN(C(C)=O)C1 [Compound A-7] | 6.30 to 7.00
COc1cc2nccc(N[C@H](C)c3cccc(C(F)F)c3F)c2cc1O[C@H]1CCNC1 [Compound A-5] | ≥ 7.00
C[C@@H](Nc1ccnc2cnc(C(C)(O)C3CC3)cc12)c1cccc(C(F)F)c1F (stereo partly drawn) [Compound B-106] | ≥ 7.00
Cc1c(C(F)F)cccc1[C@@H](C)Nc1ccnc2cnc(C3(O)CCC(O)CC3)cc12 (single isomer, unassigned) [Compound B-86-P1] | 6.30 to 7.00
Cc1c([C@@H](C)Nc2ccnc3cnc(C4(O)CCC(O)CC4)cc23)cccc1C(F)(F)F (single isomer, unassigned) [Compound B-84-P1] | 6.30 to 7.00
COc1cc2nccc(N[C@H](C)c3cccc(C(F)F)c3F)c2cc1OC1CCN(C(C)=O)CC1 [Compound A-18] | ≥ 7.00
C[C@@H](Nc1ccnc2cnc(N3CCCC3=O)cc12)c1cccc(C(F)F)c1F [Compound B-59] | ≥ 7.00
Cc1c([C@@H](C)Nc2ccnc3cnc(C4(O)CCC(O)CC4)cc23)cccc1C(F)(F)F (single isomer, unassigned) [Compound B-84-P2] | 6.30 to 7.00
COc1cc2nccc(N[C@H](C)c3cccc(C(F)F)c3F)c2cc1C1(OC)CCN(C(C)=O)CC1 [Compound A-59] | ≥ 7.00
Cc1c(C(F)F)cccc1[C@@H](C)Nc1ccnc2cnc(C3(O)CCC(O)CC3)cc12 (single isomer, unassigned) [Compound B-86-P2] | 6.30 to 7.00
COc1cc2nccc(N[C@H](C)c3cccc(C(F)F)c3F)c2cc1OC1CCNCC1 [Compound A-17] | ≥ 7.00
C[C@@H](Nc1ccnc2cnc(N3CC(O)CC3=O)cc12)c1cccc(C(F)F)c1F (stereo partly drawn) [Compound B-57] | 6.30 to 7.00
COc1cc2nccc(N[C@H](C)c3cccc(C(F)F)c3F)c2cc1OC [Compound A-1] | ≥ 7.00
Cc1cc(N[C@H](C)c2cccc(C(F)F)c2F)c2cc(C3(O)CCC(O)CC3)ncc2n1 (single isomer, unassigned) [Compound B-88-P1] | ≥ 7.00
C[C@@H](Nc1ccnc2cnc(N3CCN(CCO)CC3)cc12)c1cccc(C(F)F)c1F [Compound B-43] | ≥ 7.00
C[C@@H](Nc1ccnc2cnc(N3CCC(N(C)C)CC3)cc12)c1cccc(C(F)F)c1F [Compound B-61] | ≥ 7.00
COc1cc2nccc(N[C@H](C)c3cccc(C(F)F)c3F)c2cc1C1CCN(C(C)=O)CC1 [Compound A-40] | ≥ 7.00
C[C@@H](Nc1ccnc2cnc(N3CCC(O)C3=O)cc12)c1cccc(C(F)F)c1F (stereo partly drawn) [Compound B-58] | ≥ 7.00
COC(=O)C1CCC(O)(c2cc3c(N[C@H](C)c4cccc(C(F)F)c4F)ccnc3cn2)CC1 (stereo partly drawn) [Compound B-99] | ≥ 7.00
COc1cc2nc(C)cc(N[C@H](C)c3cccc(C(F)F)c3F)c2cc1OC [Compound A-2] | ≥ 7.00
COc1cc2nccc(N[C@H](C)c3cccc(C#N)c3C)c2cc1O[C@H]1CCOC1 [Compound A-4] | 6.30 to 7.00
C[C@@H](Nc1ccnc2cnc(C3(O)CCC(N4CCNCC4)CC3)cc12)c1cccc(C(F)F)c1F (single isomer, unassigned) [Compound B-97-P1] | ≥ 7.00
CC(=O)C1CCN(c2cc3c(N[C@H](C)c4cccc(C(F)F)c4F)ccnc3c(C)n2)CC1 [Compound B-66] | ≥ 7.00

Now from value to compound:

pIC50 | Compound
≥ 7.00 | COc1cc2nccc(N[C@H](C)c3cccc(C(F)F)c3F)c2cc1C1CCN(S(C)(=O)=O)CC1 [Compound A-41]
≥ 7.00 | C[C@@H](Nc1ccnc2cnc(C(C)(C)O)cc12)c1cccc(C(F)F)c1F [Compound B-105]
≥ 7.00 | C[C@@H](Nc1ccnc2cnc(N3C[C@@H](O)C[C@H]3CO)cc12)c1cccc(C(F)F)c1F [Compound B-77]
≥ 7.00 | COc1cc2nccc(N[C@H](C)c3cccc(C(F)F)c3F)c2cc1C1CCS(=O)(=O)CC1 [Compound A-46]
≥ 7.00 | COc1cc2nccc(N[C@H](C)c3cccc(C(F)F)c3F)c2cc1O[C@H]1CCN(C(C)=O)C1 [Compound A-6]
≥ 7.00 | COc1cc2nccc(N[C@H](C)c3cccc(C(F)F)c3F)c2cc1C1(O)CCN(C(C)=O)CC1 [Compound A-58]
≥ 7.00 | COc1cc2nccc(N[C@H](C)c3cccc(C(F)F)c3F)c2cc1O[C@H]1CCOC1 [Compound A-3]
≥ 7.00 | C[C@@H](Nc1ccnc2cnc(C3(O)CCC(N(C)C)CC3)cc12)c1cccc(C(F)F)c1F (single isomer, unassigned) [Compound B-94-P1]
≥ 7.00 | COc1cc2nccc(N[C@H](C)c3cccc(C(F)F)c3F)c2cc1C1=CCN(C(C)=O)CC1 [Compound A-39]
≥ 7.00 | CNC(=O)C1CCN(c2cc3c(N[C@H](C)c4cccc(C(F)F)c4F)ccnc3cn2)C(=O)C1 (stereo partly drawn) [Compound B-55]
≥ 7.00 | COc1cc2c(N[C@H](C)c3cccc(C(F)F)c3F)ccnc2cc1OC1CCN(C(C)=O)CC1 [Compound A-16]
≥ 7.00 | COc1cc2nccc(N[C@H](C)c3cccc(C(F)F)c3F)c2cc1C1=CCS(=O)(=O)CC1 [Compound A-45]
